We go through 19 compounds from paper PMC8842279, “Exploring Non-orthosteric Interactions with a Series of Potent and Selective A3 Antagonists” (ACS Medicinal Chemistry Letters, 2022).

For orientation: melting point means the temperature of the solid-liquid transition.

Data set [1] deals with T1, hA1 (human A1 adenosine receptor) (Homo sapiens, UniProt P30542).
T1 construct: expressed in transfected cells; host or cells: CHO
T1 sequence (P30542 1-326): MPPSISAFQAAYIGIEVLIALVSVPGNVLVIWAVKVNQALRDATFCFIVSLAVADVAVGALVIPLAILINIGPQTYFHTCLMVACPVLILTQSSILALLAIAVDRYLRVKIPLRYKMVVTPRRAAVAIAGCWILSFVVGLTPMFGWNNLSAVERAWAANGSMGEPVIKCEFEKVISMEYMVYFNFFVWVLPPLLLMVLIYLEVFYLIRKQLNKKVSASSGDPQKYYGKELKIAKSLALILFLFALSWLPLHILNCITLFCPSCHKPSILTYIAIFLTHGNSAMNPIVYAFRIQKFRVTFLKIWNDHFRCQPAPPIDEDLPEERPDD
The data set can be described thus: Radioligand binding, displacement of [3H]DPCPX, transfected CHO cells. The following applies: n = 2, read-out: hA1 % displacement of specific binding at 1 μM. The procedure:
(§1) Briefly, hARs were expressed in transfected CHO (A1AR), HeLa (A2AAR and A3AR), and HEK-293 (A2BAR) cells. (^3H)-8-Cyclopentyl-1,3-dipropylxanthine ([^3H]DPCPX) for A1AR and [^3H]NECA for A3AR were used as radioligands in the assays. […] Ki values were calculated by fitting the data with nonlinear regression using Prism 2.1 software (GraphPad). […].
(§2) Pharmacology. Binding assays
(§3) The adenosinergic profile (affinity and selectivity) of the 18 novel pyrimidine derivatives (7-10) was evaluated in vitro (four human AR subtypes) using radioligand binding assays. Human adenosine receptors were expressed in transfected CHO (A1AR), HeLa (A2AAR and A3AR) and HEK-293 (A2BAR) cells. (3H)-1,3-Dipropyl-8-cyclopentylxanthine ([3H]DPCPX) for A1AR and [3H]NECA for A3AR were employed as radioligands in the assays. […]
displace specific radioligand binding. Ki values were obtained by fitting the data with nonlinear regression using Prism 2.1 software (GraphPad, San Diego, CA).
Furthermore, for A3AR, fluorescence polarization binding experiments were carried out in a 96-well plate (Corning 3650). D-PBS (Sigma D8537) was used as assay buffer. In each well, 100µg of membranes from Hela-A3 cell line previously prepared in our laboratory (Lot: A006/ 17-01-2020, […]
as standard and non-specific binding determined in presence of R-PIA 10µM (Sigma S739). 75 nM of the fluorescent ligand (CELT-228) was added, and the reaction mixture (Vt = 200µl) was incubated for 30 minutes at RT. The polarized fluorescence signal was read in an Infinite M1000 pro multiplate reader (Tecan 30063849). For validation of fluorescence polarization binding assay […] (hA 3AR Ki […]
representation of the concentration-response curves of the […].
(§4) (1 picture or pasted object on this page, not shown here)
Background: Loss of bound radioactivity is the signal in a displacement assay; it reports binding, not function.

For data set [2], the target named is T2, hA2A (human A2A adenosine receptor) (Homo sapiens, UniProt P29274).
T2 construct: expressed in transfected cells; host or cells: HeLa
T2 sequence (P29274 whole entry): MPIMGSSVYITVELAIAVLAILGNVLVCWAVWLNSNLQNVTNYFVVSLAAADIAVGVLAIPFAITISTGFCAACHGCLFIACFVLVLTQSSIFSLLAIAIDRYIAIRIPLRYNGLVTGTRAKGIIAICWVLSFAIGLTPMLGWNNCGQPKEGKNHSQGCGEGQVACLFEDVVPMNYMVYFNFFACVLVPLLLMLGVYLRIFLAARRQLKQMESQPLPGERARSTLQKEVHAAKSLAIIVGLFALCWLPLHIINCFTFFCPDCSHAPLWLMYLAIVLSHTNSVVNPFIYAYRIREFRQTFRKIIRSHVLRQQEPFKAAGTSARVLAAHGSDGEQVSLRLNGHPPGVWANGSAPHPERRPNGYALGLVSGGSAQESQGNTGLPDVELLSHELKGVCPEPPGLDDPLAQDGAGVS
The class given is binding. The note with it: human HeLa cells, n = 2.

Data set [3] addresses T3, hA2B (human A2B adenosine receptor) (Homo sapiens, UniProt P29275).
T3 construct: expressed in transfected cells; host or cells: HEK-293
T3 sequence (P29275 1-332): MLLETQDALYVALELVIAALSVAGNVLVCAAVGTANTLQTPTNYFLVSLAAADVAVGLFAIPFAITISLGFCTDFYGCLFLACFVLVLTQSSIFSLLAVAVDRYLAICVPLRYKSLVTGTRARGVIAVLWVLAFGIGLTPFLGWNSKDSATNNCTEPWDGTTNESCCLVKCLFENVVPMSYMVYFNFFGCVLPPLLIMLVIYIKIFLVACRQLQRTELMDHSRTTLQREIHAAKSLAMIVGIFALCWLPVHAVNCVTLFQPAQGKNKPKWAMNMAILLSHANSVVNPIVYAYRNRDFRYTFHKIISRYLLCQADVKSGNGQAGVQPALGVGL
The data set can be described thus: Radioligand binding, displacement of [3H]DPCPX, transfected HEK-293 cells. The note with it: human HEK-293 cells, n = 2, read-out: hA2B % displacement of specific binding at 1 μM. The procedure: as §1, §2, §3
displace specific radioligand binding. Ki values were obtained by fitting the data with nonlinear regression using Prism 2.1 software (GraphPad, San Diego, CA). […]
as §4

Regarding `COc1ccc(-c2cc(NC(=O)CCC(=O)N(C)CC(=O)NC3CCCCC3)nc(-c3ccc(OC)cc3)n2)cc1` [7e], the inhibition at 1 µM in data set [1] is 9%; in data set [3] it was 1%. Moreover, in data set [2], the “hA2A % displacement of specific binding at 1 μM” value (shortened to “hA2A % displacement”) came out at 11%.
As for `COc1ccc(-c2cc(NC(=O)CCC(=O)N3CCN(CC(=O)NC(C)(C)C)CC3)nc(-c3ccc(OC)cc3)n2)cc1` [9a], the melting point was 203 to 205 °C. The inhibition at 1 µM in data set [1] was found to be 19%. Also, in data set [2], the “hA2A % displacement” value worked out at 4%. Further, the inhibition at 1 µM in data set [3] worked out at 1%.
The compound `COc1ccc(-c2cc(NC(=O)COCC(=O)N(C)CC(=O)NCc3ccccc3)nc(-c3ccc(OC)cc3)n2)cc1` [8f] gave a melting point of 166 to 168 °C. Further, the inhibition at 1 µM in data set [1] worked out at 6%. Further, the “hA2A % displacement” value in data set [2] is on record as 1%. Moreover, in data set [3], the inhibition at 1 µM worked out at 2%.
`COc1ccc(-c2cc(NC(=O)COCC(=O)NCC(=O)NCc3ccccc3)nc(-c3ccc(OC)cc3)n2)cc1` [8c]: the melting point lay in the range of 201 to 203 °C. Further, the inhibition at 1 µM in data set [1] worked out at 9%. Further, the “hA2A % displacement” value in data set [2] was 1%. Besides, the inhibition at 1 µM in data set [3] stood at 2%.
For the compound `COc1ccc(-c2cc(NC(=O)COCC(=O)NCC(=O)NC(C)(C)C)nc(-c3ccc(OC)cc3)n2)cc1` [8a], the inhibition at 1 µM in data set [1] was found to be 7%; in data set [3], 3%. Further, in data set [2], the “hA2A % displacement” value was 9%.
As for `COc1ccc(-c2cc(NC(=O)COCC(=O)NCC(=O)NC3CCCCC3)nc(-c3ccc(OC)cc3)n2)cc1` [8b], the melting point lay within 113 to 115 °C. Moreover, in data set [1], the inhibition at 1 µM is 6%. In addition, the “hA2A % displacement” value in data set [2] is 9%. Moreover, the inhibition at 1 µM in data set [3] stood at 3%.
In the case of `COc1ccc(-c2cc(NC(=O)COCC(=O)N3CCN(CC(=O)NCc4ccccc4)CC3)nc(-c3ccc(OC)cc3)n2)cc1` [10c], the inhibition at 1 µM worked out at 2% in data set [1] and 1% in data set [3]. The “hA2A % displacement” value in data set [2] was 7%.
On to `COc1ccc(-c2cc(NC(=O)COCC(=O)N3CCN(CC(=O)NC4CCCCC4)CC3)nc(-c3ccc(OC)cc3)n2)cc1` [10b], for which the inhibition at 1 µM in data set [1] worked out at 11%; in data set [3] it was 2%. The “hA2A % displacement” value in data set [2] came out at 3%.
Compound `COc1ccc(-c2cc(NC(=O)COCC(=O)N(C)CC(=O)NC(C)(C)C)nc(-c3ccc(OC)cc3)n2)cc1` [8d] returned a melting point of 115 to 117 °C. Besides, in data set [1], the inhibition at 1 µM worked out at 20%. Moreover, in data set [2], the “hA2A % displacement” value came to 4%. Further, the inhibition at 1 µM in data set [3] worked out at 2%.
As for `COc1ccc(-c2cc(NC(=O)CCC(=O)NCC(=O)NCc3ccccc3)nc(-c3ccc(OC)cc3)n2)cc1` [7c], the melting point lay in the range of 184 to 186 °C. Besides, in data set [1], the inhibition at 1 µM worked out at 2%. The “hA2A % displacement” value in data set [2] worked out at 3%. Moreover, in data set [3], the inhibition at 1 µM worked out at 3%.
The compound `COc1ccc(-c2cc(NC(=O)CCC(=O)N(C)CC(=O)NC(C)(C)C)nc(-c3ccc(OC)cc3)n2)cc1` [7d] returned a melting point of 136 to 138 °C. Besides, the inhibition at 1 µM in data set [1] came out at 32%. The “hA2A % displacement” value in data set [2] came to 3%. In data set [3], the inhibition at 1 µM came to 10%.
In the case of `COc1ccc(-c2cc(NC(=O)CCC(=O)N3CCN(CC(=O)NC4CCCCC4)CC3)nc(-c3ccc(OC)cc3)n2)cc1` [9b], the inhibition at 1 µM was determined as 9% in data set [1] and 1% in data set [3]. For the same compound, the “hA2A % displacement” value in data set [2] came out at 1%.
`COc1ccc(-c2cc(NC(=O)CCC(=O)N(C)CC(=O)NCc3ccccc3)nc(-c3ccc(OC)cc3)n2)cc1` [7f]: the results for the inhibition at 1 µM in data set [1] and in data set [3] were 32% and 2%, respectively. Further, the “hA2A % displacement” value in data set [2] is recorded as 20%.
`COc1ccc(-c2cc(NC(=O)CCC(=O)N3CCN(CC(=O)NCc4ccccc4)CC3)nc(-c3ccc(OC)cc3)n2)cc1` [9c] displayed a melting point of 194 to 195 °C. Further, the inhibition at 1 µM in data set [1] came out at 6%. In addition, the “hA2A % displacement” value in data set [2] amounted to 9%. Also, in data set [3], the inhibition at 1 µM was 2%.
The compound `COc1ccc(-c2cc(NC(=O)CCC(=O)NCC(=O)NC(C)(C)C)nc(-c3ccc(OC)cc3)n2)cc1` [7a] registered a melting point of 176 to 178 °C. Moreover, the inhibition at 1 µM in data set [1] came out at 10%. In data set [2], the “hA2A % displacement” value worked out at 3%. The inhibition at 1 µM in data set [3] was 4%.
Turning to `COc1ccc(-c2cc(NC(=O)CCC(=O)NCC(=O)NC3CCCCC3)nc(-c3ccc(OC)cc3)n2)cc1` [7b], the melting point lay within 202 to 204 °C. Also, the inhibition at 1 µM in data set [1] was 5%. Moreover, in data set [2], the “hA2A % displacement” value turned out to be 9%. Also, the inhibition at 1 µM in data set [3] amounted to 16%.
Regarding `COc1ccc(-c2cc(NC(C)=O)nc(-c3ccc(OC)cc3)n2)cc1` [ISVY-130, N-(2,6-bis(4-methoxyphenyl)pyrimidin-4-yl)acetamide, reference compound], the inhibition at 1 µM in data set [1] is 1%; in data set [3], 4%. The “hA2A % displacement” value in data set [2] is 10%.
Consider `COc1ccc(-c2cc(NC(=O)COCC(=O)N3CCN(CC(=O)NC(C)(C)C)CC3)nc(-c3ccc(OC)cc3)n2)cc1` [10a], for which the melting point lay in the range of 106 to 108 °C. Moreover, the inhibition at 1 µM in data set [1] was 9%. Also, the “hA2A % displacement” value in data set [2] is reported as 36%. Moreover, the inhibition at 1 µM in data set [3] was found to be 3%.
Turning to `COc1ccc(-c2cc(NC(=O)COCC(=O)N(C)CC(=O)NC3CCCCC3)nc(-c3ccc(OC)cc3)n2)cc1` [8e], the melting point lay in the range of 186 to 188 °C. Moreover, the inhibition at 1 µM in data set [1] came to 13%. Moreover, the “hA2A % displacement” value in data set [2] turned out to be 8%. In data set [3], the inhibition at 1 µM is 2%.
